These results are taken from patent US20090069343A1, “Combination Histamine H1R and H4R Antagonist Therapy for Treating Pruritus” (priority 2006, published 2009).

What all share (type): in vivo, mouse
Experiment [1] relates to CD-1 mice, histamine-induced itch. The experiment in a line: Histamine-induced itch, Example 1a. Particulars: oral dose 20 min before i.d. histamine, FIG. 8. Here is the method: Methods. Experiments and procedures were performed under on-site IACUC standards and regulations. Female CD-1 mice (Charles River Hollister, Calif.) of approximately 10-12 weeks of age were used. Mice were housed under controlled light (6:00-18:00 h) and temperature (22° C.) with food and water available ad libitum. Histamine diphosphate (Sigma, St. Louis, Mo.) was dissolved in Dulbecco's phosphate buffered saline (PBS, pH=7.4) at various concentrations. H4R Inhibitor 1 was synthesized as described by Jablonowski et al. (J. Med. Chem. (2003), 46, 3957-3960), dissolved in a vehicle of 20% HPBCD/water at various concentrations, and administered per os (p.o.; by mouth) at a volume of 10 ml/kg. Antagonists of other histamine receptors, H1R (diphenhydramine and desloratadine), H2R (ranitidine) and H3R (1-[3-(4-piperidin-1-ylmethyl-phenoxy)-propyl]-piperidine, (“H3R Antagonist 1”; synthesized as described by Barbier et al., British J. Pharmacology (2004), 143: 649-661) were formulated similarly for use in experiments. In all experiments the hair was clipped over the rostral part of the back 24 hours prior to i.d. injection of pruritogen. Where noted, animals received an oral dose of histamine receptor antagonist 20 minutes prior to injection of pruritogen. Animals were injected i.d. with 20 μl of histamine. PBS was given as the vehicle control (“V). Immediately after intradermal injection, the animals were returned to an acrylic cage (approx. 15 cm dia×30 cm) to which they had been acclimated for at least 1 hour prior to the experiment, for observation of itch responses.

The test system of experiment [2] is Balb/c mice, Compound 48/80-induced itch response. The experiment in a line: Compound 48/80-induced itch response (scratches in 20 min), background example. The note with it: for inhibition of itch response: Compound 48/80, FIG. 2. On the procedure:
The role of histamine H4 receptor in itch responses was evaluated in mice.

Experiment [3] deals with mice, H4R agonist-induced scratching. The experiment in a line: Selective H4R agonist-induced scratching, background example. Particulars: oral administration; FIG. 6.
Experiment [4] deals with mice, histamine-induced scratching. The experiment in a line: Histamine-induced scratching, background example. The note with it: FIG. 4. On the procedure: To evaluate the direct role of histamine in the pruritic response, histamine was injected in to the skin of mice and the amount of scratching measured.
Experiment [5] has as its system CD-1 mice, Compound 48/80-induced itch. The experiment in a line: Compound 48/80-induced itch, Example 1b. Particulars: oral dose 20 min before i.d. Compound 48/80, FIG. 9. On the procedure: Methods. Experiments and procedures were performed under on-site IACUC standards and regulations. Female CD-1 mice (Charles River Hollister, Calif.) of approximately 10-12 weeks of age were used. Mice were housed under controlled light (6:00-18:00 h) and temperature (22° C.) with food and water available ad libitum. Compound 48/80 (Sigma, St. Louis, Mo.) was dissolved in Dulbecco's phosphate buffered saline (PBS, pH=7.4) at 5 mg/ml. H4R Inhibitor 1 (synthesized as previously described) was dissolved in a vehicle of 20% HPBCD/water at various concentrations and administered p.o. at a volume of 10 ml/kg. […] In all experiments the mouse hair was clipped over the rostral part of the back 24 hours prior to i.d. injection of pruritogen. Where noted, animals received an oral dose of histamine receptor antagonist 20 min prior to injection of pruritogen. Animals were injected i.d. with 20 μl of Compound 48/80 or were given PBS as a vehicle control. Immediately after intradermal injection, the animals were returned to an acrylic cage (approx. 15 cm diameter×30 cm height) to which they had been acclimated for at least 1 h prior to the experiment, for observation of itch responses.

With `Clc1ccc2c(c1)CCc1cccnc1C2=C1CCNCC1` [desloratadine], the “effect on histamine-induced itch” value in experiment [1] is given as “no effect”.

Take `CN1CCN(C(=O)c2cc3cc(Cl)ccc3[nH]2)CC1` [H4R Inhibitor 1]: the “inhibition of itch response” value was 12% in experiment [2] (3 mg/kg) and 68% in experiment [2] (100 mg/kg (maximally active)). For the same compound, the “reduction of itch response” value in experiment [2] (30 mg/kg orally prior to Compound 48/80 injection, Balb/c mice) is listed as 62.5%. Besides, in experiment [3], the “effect on H4R agonist-induced scratching” value is recorded as “inhibitable”. For the same compound, the results for the “inhibition of histamine-induced scratching” value in experiment [4] (3 mg/kg oral pre-treatment) and in experiment [4] (30 mg/kg oral pre-treatment (maximal)) were 17% and 75%, respectively. Besides, in experiment [4] (oral pre-treatment), the “effect on histamine-induced scratching” value is given as “dose-dependently inhibited”. Further, in experiment [1], the “effect on histamine-induced itch” value was “significant reduction of histamine-induced itch”. Besides, the “effect on Compound 48/80-induced itch” value in experiment [5] was “significantly reduced the itch”.

`c1cc(OCCCN2CCCCC2)ccc1CN1CCCCC1` [H3R Antagonist 1, 1-[3-(4-piperidin-1-ylmethyl-phenoxy)-propyl]-piperidine]: the “effect on histamine-induced itch” value in experiment [1] is recorded as “neither the H2R antagonist ranitidine nor the H3R antagonist demonstrated significant inhibition”.

On to `CN(C)CCOC(c1ccccc1)c1ccccc1` [diphenhydramine, reference compound], for which, in experiment [1], the “effect on histamine-induced itch” value is reported as “Small but significant inhibition”. Further, the “effect on Compound 48/80-induced itch” value in experiment [5] is given as “Small but significant inhibition”.
